The values below come from paper PMC8245855 (Acta Pharmaceutica Sinica. B, 2021).

Read-outs that look alike come from different tables or passages of the source.

One experiment relates to 15-LOX. The settings on record: 10 μmol/L; human neutrophils; cited from earlier work.
For experiment [1], the system named is 5-LOX. The settings on record: cited from earlier work; for IC50: read-out: IC50, 5-LOX.
For the next experiment, the target named is T1, 12-LOX (Homo sapiens, UniProt P18054).
T1 sequence (P18054 1-663): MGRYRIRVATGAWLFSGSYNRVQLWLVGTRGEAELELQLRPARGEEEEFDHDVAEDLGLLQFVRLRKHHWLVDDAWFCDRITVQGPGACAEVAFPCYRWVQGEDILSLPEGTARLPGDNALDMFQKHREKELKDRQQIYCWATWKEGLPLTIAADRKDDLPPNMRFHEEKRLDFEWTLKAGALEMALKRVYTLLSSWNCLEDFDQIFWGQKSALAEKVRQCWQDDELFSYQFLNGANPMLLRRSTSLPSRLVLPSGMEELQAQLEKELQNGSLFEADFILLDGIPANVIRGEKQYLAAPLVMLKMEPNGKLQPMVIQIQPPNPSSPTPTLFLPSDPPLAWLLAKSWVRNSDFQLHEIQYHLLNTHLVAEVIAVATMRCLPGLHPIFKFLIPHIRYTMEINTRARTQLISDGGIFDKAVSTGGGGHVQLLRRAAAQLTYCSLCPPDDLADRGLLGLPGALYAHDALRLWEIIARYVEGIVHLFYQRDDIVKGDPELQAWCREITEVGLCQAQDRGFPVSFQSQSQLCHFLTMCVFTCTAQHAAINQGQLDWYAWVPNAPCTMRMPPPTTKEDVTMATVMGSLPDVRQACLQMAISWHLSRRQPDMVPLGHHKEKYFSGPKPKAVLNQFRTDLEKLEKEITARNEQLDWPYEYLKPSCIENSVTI
The settings on record: 10 μmol/L; human neutrophils; cited from earlier work.

Experiment [2] concerns the target T2, 5-LOX (Homo sapiens, UniProt P09917).
T2 sequence (P09917 1-674): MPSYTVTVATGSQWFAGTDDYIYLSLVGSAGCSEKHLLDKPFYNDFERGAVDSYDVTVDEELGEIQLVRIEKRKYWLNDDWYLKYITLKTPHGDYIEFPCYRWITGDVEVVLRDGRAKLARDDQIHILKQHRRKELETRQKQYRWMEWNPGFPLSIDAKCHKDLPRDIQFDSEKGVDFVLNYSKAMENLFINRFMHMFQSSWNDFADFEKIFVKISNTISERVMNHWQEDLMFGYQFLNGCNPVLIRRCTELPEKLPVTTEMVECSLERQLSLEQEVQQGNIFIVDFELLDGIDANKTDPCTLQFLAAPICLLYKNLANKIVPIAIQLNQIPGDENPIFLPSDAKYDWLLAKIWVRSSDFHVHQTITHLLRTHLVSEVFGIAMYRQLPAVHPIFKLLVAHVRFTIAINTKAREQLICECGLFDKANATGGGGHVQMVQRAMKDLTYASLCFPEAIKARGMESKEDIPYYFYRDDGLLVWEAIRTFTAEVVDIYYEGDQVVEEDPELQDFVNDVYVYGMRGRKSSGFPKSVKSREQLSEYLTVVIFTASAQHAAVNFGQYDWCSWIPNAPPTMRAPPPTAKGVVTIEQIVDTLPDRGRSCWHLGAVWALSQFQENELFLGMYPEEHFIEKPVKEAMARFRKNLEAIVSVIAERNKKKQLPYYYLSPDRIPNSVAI
Description: cell-free 5-LOX activity. The format is biochemical. The settings on record: for IC50: read-out: IC50, human recombinant 5-LOX, arachidonic acid 20 μmol/L.

For experiment [3], the target named is T2, 5-LOX. Description: 5-LOX product formation in activated PMNL. The experiment is classed as cell-based. The settings on record: for IC50: read-out: IC50, 5-LOX product formation, activated PMNL, A23187 plus arachidonic acid.
The next experiment relates to COX-1. The settings on record: read-out: IC50, COX-1; cited from earlier work.
Experiment [4] has as its system human neutrophils or macrophages. The settings on record: cited from earlier work.

As to “3-O-acetyl-11-keto-β-boswellic acid [AKBA]”, the “formation of 15-LOX metabolites” value in the experiment on 15-LOX is 210%. In the experiment with 5-LOX [1], the IC50 is 3000 nM. The “formation of 12-LOX metabolites” value on 12-LOX is 270%.

As to `COc1ccc(C(CCc2ccc(O)cc2OC)c2cc3c(c(C)c2O)OC(c2ccc(O)cc2)CC3)cc1` (centres unmarked) [Compound 3], the IC50 on 5-LOX [2] was 300 ± 70 nM; at 5-LOX [3], 800 ± 140 nM.

In the case of `COc1cc(O)ccc1CCC(c1ccc(O)cc1)c1c(O)c(C)c2c(c1O)C(=O)CC(c1ccc(O)cc1)O2` (centres unmarked) [Compound 4], the IC50 at 5-LOX [2] stood at 900 ± 260 nM; at 5-LOX [3], 460 ± 120 nM.

Regarding `CC(c1cc2ccccc2s1)N(O)C(N)=O` (centres unmarked) [Zileuton, zileuton], the “suppression of 5-LOX product formation, cell-free” value on 5-LOX [2] (3 μmol/L) is reported as 70.7 ± 2.7%. At 5-LOX [3] (PMNL, read-out: inhibition of biosynthesis of 5-LOX metabolites, PMNL), the inhibition at 3 µM is 64.1 ± 6.3%.

As for `COc1ccc2c(c1)c(CC(=O)O)c(C)n2C(=O)c1ccc(Cl)cc1` [indomethacin], in the experiment with COX-1, the IC50 is […].

As to `Cc1cc(C(C)(C)C)c(O)c(C)c1CC1=NCCN1` [oxymetazoline], the “5-LOX product formation” value with 5-LOX [1] (1000 μmol/L) is recorded as “failed to inhibit”. Further, the SPM formation in experiment [4] (400 μmol/L) is listed as 130%.

As to ginkgolic acid, the IC50 in the experiment with 5-LOX [1] was 200 nM. In addition, the SPM formation in experiment [4] (10 μmol/L) is on record as 110%–240%.

What is called IC50 is the concentration needed to halve the response being measured. The inhibition is the relative decrease from the control value, in per cent.
